From US20210220328A1, “PYRROLE DERIVATIVES AS ACC INHIBITORS” (Almirall, S.A., priority 2017, published 2021)

Tested on: immortalized human sebocyte cell line, SZ95
Assay: In vitro assay of inhibition of lipid synthesis
Type: cell-based
Settings: 48 h, SZ95 sebocytes
Protocol: In Vitro Assay of Inhibition of Lipid Synthesis
To evaluate the inhibition of lipid synthesis, the immortalized human sebocyte cell line, SZ95 (stablished by Zouboulis, C. C. et al J Invest Dermatol 1999; 113:1011-20), was treated with arachidonic acid (AA) in presence or absence of compound. Lipids were detected by using a lipid sensing fluorophore.
Compounds were dissolved in dimethylsulfoxide (DMSO) 100%. Then the stocks were serial diluted 1/3 in DMSO 100%, and this battery of solutions were diluted 1/10 in culture medium, to minimize the percentage of the DMSO over cells.
10 k cells were plated in 384 well microtiter plates and incubated at 37° C. and 5% CO2 in DMEM/F12 supplemented with 10% FBS, 1.25 ng/ml of rhEGF and GA-1000 before of compound and stimulus addition. After 24 h, compounds dissolved in culture media were added over cells, diluting the solutions prepared 1/40 in the final volume of the assay. Then, cells and compounds were preincubated for 30 min at 37° C. and 5% CO2. After this prior incubation, the lipid synthesis was induced by 75 μM of AA final solution, preparing a solution 10× in culture media. Finally, SZ95 treated were incubated for 48 h at 37° C. and 5% CO2.
Neutral lipids were measured using AdipoRed™, purchased from LONZA. To do that, cells were washed with PBS and incubated with a solution of AdipoRed™ (final dilution 1/80 in PBS) for 30 min at room temperature. After the staining process, the fluorescence intensity (FI) was quantified using a fluorescence plate reader (excitation 485 nm; emission 535).
Activity of compounds were calculated as % of inhibition considering the maximal fluorescence for AA-stimulated cells and the minimum fluorescence for unstimulated cells as controls.

[1] = lipid synthesis induced by 75 μM arachidonic acid, AdipoRed fluorescence, Table 1
[2] = 75 μM arachidonic acid, AdipoRed, Table 2, finer classes for compounds with IC50 less than 250 nM

Row | Structure (SMILES) | IC50 [1] [nM] | IC50 [2] [nM]
1 | CCCCCCCCCCCCCCCCCc1cc(F)c(C(=O)O)[nH]1 [Example 124, 3-Fluoro-5-heptadecyl-1H-pyrrole-2-carboxylic acid] | < 250 | 
2 | CCCCCCCCCCCCc1c[nH]c(C(=O)O)c1F [Example 14, 4-Dodecyl-3-fluoro-1H-pyrrole-2-carboxylic acid] | < 250 | < 50
3 | CCCCCCCCCCCCCCCCc1cc(F)c(C(=O)O)[nH]1 [Example 123, 3-Fluoro-5-hexadecyl-1H-pyrrole-2-carboxylic acid] | < 250 | 50 to 100
4 | CCCCCCCCCCCCCc1c[nH]c(C(=O)OC(C)C)c1F [Example 23, Isopropyl 3-fluoro-4-tridecyl-1H-pyrrole-2-carboxylate] | > 5000 | 
5 | CCCCCCCCCCCCCCC(=O)c1c[nH]c(C(=O)O)c1F [Example 91, 3-Fluoro-4-pentadecanoyl-1H-pyrrole-2-carboxylic acid] | 1000 to 5000 | 
6 | CCCCCCCCCCCCCc1c[nH]c(C(=O)OC2CCCCC2)c1F [Example 25, Cyclohexyl 3-fluoro-4-tridecyl-1H-pyrrole-2-carboxylate] | 1000 to 5000 | 
7 | CCCCCCCCCOc1c[nH]c(C(=O)O)c1Cl [Example 77, 3-chloro-4-(nonyloxy)-1H-pyrrole-2-carboxylic acid] | < 250 | 50 to 100
8 | CCCCCCCCCCCCCc1cn(C(C)C)c(C(=O)O)c1F [Example 70, 3-Fluoro-1-isopropyl-4-tridecyl-1H-pyrrole-2-carboxylic acid] | 1000 to 5000 | 
9 | CCCCCCCCCCc1c[nH]c(C(=O)O)c1F [Example 12, 4-Decyl-3-fluoro-1H-pyrrole-2-carboxylic acid] | < 250 | < 50
10 | CCCCCCCCCCCCCc1c[nH]c(C(=O)OC)c1F [Example 22, Methyl 3-fluoro-4-tridecyl-1H-pyrrole-2-carboxylate] | 1000 to 5000 | 
11 | CCCCCCCCCCCCOc1c[nH]c(C(=O)OC(C)OC(=O)OC(C)C)c1Cl (stereo not drawn) [Example 85, 1-((Isopropoxycarbonyl)oxy)ethyl 3-chloro-4-(dodecyloxy)-1H-pyrrole-2-carboxylate] | < 250 | < 50
12 | CCCCCCCCCCCCc1cc(Cl)c(C(=O)OC(C)OC(=O)OC(C)C)[nH]1 (stereo not drawn) [Example 115, 1-((Isopropoxycarbonyl)oxy)ethyl 3-chloro-5-dodecyl-1H-pyrrole-2-carboxylate] | < 250 | 100 to 250
13 | CCCCCCCCCCCCc1cc(C#N)c(C(=O)O)[nH]1 [Example 129, 3-Cyano-5-dodecyl-1H-pyrrole-2-carboxylic acid] | 1000 to 5000 | 
14 | CCCCCCCCCCCCCc1c[nH]c(C(=O)OC(C)OC(=O)OC(C)C)c1Cl (stereo not drawn) [Example 110, 1-((Isopropoxycarbonyl)oxy)ethyl 3-chloro-4-tridecyl-1H-pyrrole-2-carboxylate] | < 250 | 100 to 250
15 | CCCCCCCCCCCCOc1c[nH]c(C(=O)OCCOC(=O)[C@@H](N)C(C)C)c1 [Example 10, 2-((L-valyl)oxy)ethyl 4-(dodecyloxy)-1H-pyrrole-2-carboxylate] | 1000 to 5000 | 
16 | CCCCCCCCCCCCCc1cn(CCCC)c(C(=O)O)c1F [Example 69, 1-Butyl-3-fluoro-4-tridecyl-1H-pyrrole-2-carboxylic acid] | 1000 to 5000 | 
17 | CCCCCCCCCCCCCc1cc(F)c(C(=O)O)[nH]1 [Example 120, 3-Fluoro-5-tridecyl-1H-pyrrole-2-carboxylic acid] | < 250 | < 50
18 | CCCCCCCCCCCCCc1c[nH]c(C(=O)OC(C)OC(=O)OCCOC)c1F (stereo not drawn) [Example 49, 1-(((2-Methoxyethoxy)carbonyl)oxy)ethyl 3-fluoro-4-tridecyl-1H-pyrrole-2-carboxylate] | < 250 | < 50
19 | CCCCCCCCCCCC(C)(C)COc1c[nH]c(C(=O)O)c1F [Example 96, 4-((2,2-Dimethyltridecyl)oxy)-3-fluoro-1H-pyrrole-2-carboxylic acid] | < 250 | 50 to 100
20 | CCCCCCCCCCCCc1cc(Cl)c(C(=O)OCCOCCOCC)[nH]1 [Example 114, 2-(2-Ethoxyethoxy)ethyl 3-chloro-5-dodecyl-1H-pyrrole-2-carboxylate] | 1000 to 5000 | 
21 | CCCCCCCCCCCCOc1c[nH]c(C(=O)OCc2oc(=O)oc2C)c1Cl [Example 88, (5-Methyl-2-oxo-1,3-dioxol-4-yl)methyl 3-chloro-4-(dodecyloxy)-1H-pyrrole-2-carboxylate] | < 250 | < 50

Row | Structure (SMILES) | IC50 [1] [nM] | IC50 [2] [nM]
22 | CCCCCCCCCCCOc1c[nH]c(C(=O)OC(C)OC(=O)OC(C)C)c1F (stereo not drawn) [Example 105, 1-((Isopropoxycarbonyl)oxy)ethyl 3-fluoro-4-(undecyloxy)-1H-pyrrole-2-carboxylate] | < 250 | < 50
23 | CCCCCCCCCCCCOc1c[nH]c(C(=O)OC(C)OC(=O)OCCOCCOCC)c1Cl (stereo not drawn) [Example 86, 4-Oxo-3,5,8,11-tetraoxatridecan-2-yl 3-chloro-4-(dodecyloxy)-1H-pyrrole-2-carboxylate] | < 250 | < 50
24 | CCCCCCCCCCCCOc1c[nH]c(C(=O)OC(C)OC(=O)OC(C)C)c1 (stereo not drawn) [Example 8, 1-((Isopropoxycarbonyl)oxy)ethyl 4-(dodecyloxy)-1H-pyrrole-2-carboxylate] | < 250 | 100 to 250
25 | CCCCCCCCCCCCSc1c[nH]c(C(=O)O)c1F [Example 76, 4-(Dodecylthio)-3-fluoro-1H-pyrrole-2-carboxylic acid] | 1000 to 5000 | 
26 | CCCCCCCCCCCCOc1c[nH]c(C(=O)O)c1F [Example 73, 4-(Dodecyloxy)-3-fluoro-1H-pyrrole-2-carboxylic acid] | < 250 | < 50
27 | CCCCCCCCCCCCCc1c[nH]c(C(=O)OC(C)OC(=O)OC(C)C)c1F (stereo not drawn) [Example 44, 1-((Isopropoxycarbonyl)oxy)ethyl 3-fluoro-4-tridecyl-1H-pyrrole-2-carboxylate] | < 250 | < 50
28 | CCCCCCCCCCCCCc1c[nH]c(C(=O)OCCCCCCO)c1F [Example 36, 6-Hydroxyhexyl 3-fluoro-4-tridecyl-1H-pyrrole-2-carboxylate] | < 250 | 100 to 250
29 | CCCCCCCCCCCCCCCCCCc1cc(F)c(C(=O)O)[nH]1 [Example 125, 3-Fluoro-5-octadecyl-1H-pyrrole-2-carboxylic acid] | < 250 | 
30 | CCCCCCCCCCCCCOc1c[nH]c(C(=O)O)c1Cl [Example 89, 3-Chloro-4-(tridecyloxy)-1H-pyrrole-2-carboxylic acid] | < 250 | < 50
31 | CCCCCCCCCCCCCc1c[nH]c(C(=O)OCCCO)c1F [Example 33, 3-Hydroxypropyl 3-fluoro-4-tridecyl-1H-pyrrole-2-carboxylate] | < 250 | 50 to 100
32 | CCCCCCCCCCCCCc1c[nH]c(C(=O)OC(C)OC(=O)OCCOCCOCC)c1Cl (stereo not drawn) [Example 112, 4-Oxo-3,5,8,11-tetraoxatridecan-2-yl 3-chloro-4-tridecyl-1H-pyrrole-2-carboxylate] | < 250 | 100 to 250
33 | CCCCCCCCCCOc1c[nH]c(C(=O)O)c1F [Example 71, 4-(Decyloxy)-3-fluoro-1H-pyrrole-2-carboxylic acid] | < 250 | < 50
34 | CCCCCCCCCCCCCc1cc(Cl)c(C(=O)O)[nH]1 [Example 66, 3-Chloro-5-tridecyl-1H-pyrrole-2-carboxylic acid] | < 250 | 100 to 250
35 | CCCCCCCCCCCOc1c[nH]c(C(=O)OCC(F)(F)F)c1F [Example 103, 2,2,2-Trifluoroethyl 3-fluoro-4-(undecyloxy)-1H-pyrrole-2-carboxylate] | < 250 | < 50
36 | CCCCCCCCCCCCCc1c[nH]c(C(=O)OCCCCCCCO)c1F [Example 37, 7-Hydroxyheptyl 3-fluoro-4-tridecyl-1H-pyrrole-2-carboxylate] | < 250 | 100 to 250
37 | CCCCCCCCCCCCCc1c[nH]c(C(=O)OCCCCO)c1F [Example 34, 4-Hydroxybutyl 3-fluoro-4-tridecyl-1H-pyrrole-2-carboxylate] | < 250 | 100 to 250
38 | CCCCCCCCCCCCCc1c[nH]c(C(=O)OC(C)OC(=O)OCCOCCOCC)c1F (stereo not drawn) [Example 51, 4-Oxo-3,5,8,11-tetraoxatridecan-2-yl 3-fluoro-4-tridecyl-1H-pyrrole-2-carboxylate] | < 250 | < 50
39 | CCCCCCCCCCCCCCCCCCCc1cc(F)c(C(=O)O)[nH]1 [Example 126, 3-Fluoro-5-nonadecyl-1H-pyrrole-2-carboxylic acid] | < 250 | 
40 | CCCCCCCCCCCCCc1c[nH]c(C(=O)OC(C)OC(=O)OC2CCCCC2)c1F (stereo not drawn) [Example 47, 1-(((Cyclohexyloxy)carbonyl)oxy)ethyl 3-fluoro-4-tridecyl-1H-pyrrole-2-carboxylate] | < 250 | 50 to 100
41 | CCCCCCCCCCCCCc1c[nH]c(C(=O)OC(C)OC(=O)OCCOC)c1Cl (stereo not drawn) [Example 111, 1-(((2-methoxyethoxy)carbonyl)oxy)ethyl 3-chloro-4-tridecyl-1H-pyrrole-2-carboxylate] | < 250 | 100 to 250
